Results reported in ChEMBL document CHEMBL1131716, “Heterocycle-peptide hybrid compounds. Aminotriazole-containing agonists of the thrombin receptor (PAR-1)” (Bioorg Med Chem Lett, 1999).
Where a SMILES comes first, the peptide text is derived from it. [ ]: non-standard residue; d: D form. The star is where a group is joined. Cha = N[C@@H](CC1CCCCC1)C(=O)O; Nicotinoyl = O=C(c1cccnc1)*; 3Abz = Nc1cccc(C(=O)O)c1; 4Abz = Nc1ccc(C(=O)O)cc1; βAla = NCCC(=O)O

Legend:
[1] = target: T1, Proteinase-activated receptor 1 (Homo sapiens, UniProt P25116); experiment: Inhibition of [3H]S-(p-F-Phe)-Har-L-Har-KY-NH2 binding to Thrombin receptor 1 (PAR-1) on membranes from CHRF cells; type: cell membranes
T1 sequence (P25116 whole entry): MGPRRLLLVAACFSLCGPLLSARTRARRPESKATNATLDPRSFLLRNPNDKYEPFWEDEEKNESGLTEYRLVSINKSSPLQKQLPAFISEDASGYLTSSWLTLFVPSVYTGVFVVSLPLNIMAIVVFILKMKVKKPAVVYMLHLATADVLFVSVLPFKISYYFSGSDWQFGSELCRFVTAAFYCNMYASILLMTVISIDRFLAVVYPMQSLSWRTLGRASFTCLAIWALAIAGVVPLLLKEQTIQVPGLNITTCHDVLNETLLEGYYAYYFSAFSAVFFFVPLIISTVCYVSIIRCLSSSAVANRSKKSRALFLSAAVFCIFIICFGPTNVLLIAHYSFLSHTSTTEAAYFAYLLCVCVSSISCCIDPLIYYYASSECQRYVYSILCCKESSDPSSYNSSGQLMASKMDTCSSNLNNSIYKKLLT

[2] = target: T1, Proteinase-activated receptor 1; experiment: Inhibition of [3H]S-(p-F-Phe)-Har-L-Har-KY-NH2 binding to thrombin receptor (PAR-1) on membranes from CHRF cells; type: cell membranes
[3] = organism: Homo sapiens; experiment: Antagonist activity by using human gel-filtered platelet aggregation; type: functional
[4] = target: T2, Proteinase-activated receptor 1 (Homo sapiens) (UniProt P25116); experiment: Evaluated for activation of human platelet aggregation (gel-filtered platelets) induced by alpha thrombin at 50 uM; type: functional
T2 sequence (whole entry): T1 sequence (P25116 whole entry)

IC50 [2] [µM]	percent activation of platelet aggregation [4] [%]	other results	SMILES
–	–	IC50 [1]: 30 µM	N=C(N)NCCC[C@H](NC(=O)[C@H](CC1CCCCC1)NC(=O)c1n[nH]c(NC(=O)/C=C/c2ccc(C(F)(F)F)cc2)n1)C(=O)N[C@@H](Cc1ccccc1)C(N)=O
2	–	–	N=C(N)NCCC[C@H](NC(=O)[C@H](CC1CCCCC1)NC(=O)c1ccc(N)nc1)C(=O)N[C@@H](Cc1ccccc1)C(N)=O
–	–	IC50 [3]: 28 µM	N=C(N)NCCC[C@H](NC(=O)[C@H](CC1CCCCC1)NC(=O)c1n[nH]c(NC(=O)/C(F)=C/c2ccccc2)n1)C(=O)N[C@@H](Cc1ccccc1)C(N)=O
2	–	–	N=C(N)NCCC[C@H](NC(=O)[C@H](Cc1ccccc1)NC(=O)c1nnc(N)[nH]1)C(=O)N[C@@H](Cc1ccccc1)C(N)=O
–	32	IC50 [1]: 2.6 µM	N=C(N)NCCC[C@H](NC(=O)[C@H](CC1CCCCC1)NC(=O)c1cnc(Cl)c(Cl)c1)C(=O)N[C@@H](Cc1ccccc1)C(N)=O
27	< 20	–	N=C(N)NCCC[C@H](NC(=O)[C@H](CC1CCCCC1)NC(=O)c1n[nH]c(N)n1)C(=O)N[C@@H](Cc1c[nH]cn1)C(N)=O
7	26	–	N=C(N)NCCC[C@H](NC(=O)[C@H](CC1CCCCC1)NC(=O)c1ccncc1)C(=O)N[C@@H](Cc1ccccc1)C(N)=O
–	–	IC50 [1]: 3 µM	N=C(N)NCCC[C@H](NC(=O)[C@H](CC1CCCCC1)NC(=O)c1cc2ccccc2o1)C(=O)N[C@@H](Cc1ccccc1)C(N)=O
–	–	IC50 [1]: 15 µM	N=C(N)NCCC[C@H](NC(=O)[C@H](CC1CCCCC1)NC(=O)c1n[nH]c(NC(=O)/C=C/c2cccc(Cl)c2)n1)C(=O)N[C@@H](Cc1ccccc1)C(N)=O
3.1	–	–	N=C(N)NCCC[C@H](NC(=O)[C@H](CC1CCCCC1)NC(=O)c1cnc2ccccc2n1)C(=O)N[C@@H](Cc1ccccc1)C(N)=O
–	30	–	NCCC(=O)N[C@@H](CC1CCCCC1)C(=O)N[C@@H](CCCN=C(N)N)C(=O)N[C@@H](Cc1ccccc1)C(N)=O (H-[βAla][Cha]RF-NH2)
–	–	IC50 [1]: 1.4 µM	N=C(N)NCCC[C@H](NC(=O)[C@H](CC1CCCCC1)NC(=O)c1n[nH]c(NC(=O)/C=C/c2ccc(Cl)cc2)n1)C(=O)N[C@@H](Cc1ccccc1)C(N)=O
5.4	–	–	NCCCC[C@H](NC(=O)[C@H](CC1CCCCC1)NC(=O)c1n[nH]c(N)n1)C(=O)N[C@@H](Cc1ccccc1)C(N)=O
2.4	–	–	N=C(N)NCCC[C@H](NC(=O)[C@H](CC1CCCCC1)NC(=O)c1ccc2c(c1)-c1ccccc1-2)C(=O)N[C@@H](Cc1ccccc1)C(N)=O
4.4	–	–	N=C(N)NCCC[C@H](NC(=O)[C@H](CC1CCCCC1)NC(=O)c1ccccn1)C(=O)N[C@@H](Cc1ccccc1)C(N)=O
46	< 20	–	C[C@H](NC(=O)c1n[nH]c(N)n1)C(=O)N[C@@H](CCCN=C(N)N)C(=O)N[C@@H](Cc1ccccc1)C(N)=O
2.3	–	–	N=C(N)NCCC[C@H](NC(=O)[C@H](CC1CCCCC1)NC(=O)c1cc2ccccc2s1)C(=O)N[C@@H](Cc1ccccc1)C(N)=O
–	–	IC50 [1]: 1.4 µM; IC50 [3]: 3.6 µM	N=C(N)NCCC[C@H](NC(=O)[C@H](CC1CCCCC1)NC(=O)c1n[nH]c(NC(=O)/C=C/c2ccccc2Cl)n1)C(=O)N[C@@H](Cc1ccccc1)C(N)=O
13	56	–	N=C(N)NCCC[C@H](NC(=O)[C@H](CC1CCCCC1)NC(=O)c1ccc(-c2ccccc2)cc1)C(=O)N[C@@H](Cc1ccccc1)C(N)=O
10	55	–	N=C(N)NCCC[C@H](NC(=O)[C@H](CC1CCCCC1)NC(=O)c1ccc[nH]1)C(=O)N[C@@H](Cc1ccccc1)C(N)=O
–	–	IC50 [1]: 4 µM	COc1ccc(/C=C/C(=O)Nc2n[nH]c(C(=O)N[C@@H](CC3CCCCC3)C(=O)N[C@@H](CCCN=C(N)N)C(=O)N[C@@H](Cc3ccccc3)C(N)=O)n2)cc1
100	–	–	N=C(N)NCCC[C@H](NC(=O)[C@H](CC1CCCCC1)NC(=O)c1n[nH]c(NC(=O)/C=C/c2c[nH]c3ccccc23)n1)C(=O)N[C@@H](Cc1ccccc1)C(N)=O
5.5	–	–	N=C(N)NCCC[C@H](NC(=O)[C@H](CC1CCCCC1)NC(=O)/C=C/c1cccnc1)C(=O)N[C@@H](Cc1ccccc1)C(N)=O
16	–	IC50 [3]: 5.4 µM	N=C(N)NCCC[C@H](NC(=O)[C@H](CC1CCCCC1)NC(=O)c1n[nH]c(NC(=O)/C=C/c2cccc3ccccc23)n1)C(=O)N[C@@H](Cc1ccccc1)C(N)=O
0.55	–	–	CC(C)C[C@H](NC(=O)[C@H](CC(C)C)NC(=O)[C@H](Cc1ccccc1)NC(=O)[C@@H](N)CO)C(=O)N[C@@H](CCCN=C(N)N)C(=O)N[C@@H](CC(N)=O)C(N)=O

IC50 [2] [µM]	percent activation of platelet aggregation [4] [%]	other results	SMILES
2.3	–	–	N=C(N)NCCC[C@H](NC(=O)[C@H](CC1CCCCC1)NC(=O)c1cccnc1N)C(=O)N[C@@H](Cc1ccccc1)C(N)=O
25	38	–	N=C(N)NCCC[C@H](NC(=O)[C@H](CC1CCCCC1)NC(=O)c1ccoc1)C(=O)N[C@@H](Cc1ccccc1)C(N)=O
2.9	40	–	N=C(N)NCCC[C@H](NC(=O)[C@H](CC1CCCCC1)NC(=O)c1ccc(N)cc1)C(=O)N[C@@H](Cc1ccccc1)C(N)=O (H-[4Abz][Cha]RF-NH2)
16	< 20	–	N=C(N)NCCC[C@H](NC(=O)[C@H](CC1CCCCC1)NC(=O)C1=COc2ccccc2O1)C(=O)N[C@@H](Cc1ccccc1)C(N)=O
–	–	IC50 [1]: 8.5 µM	N=C(N)NCCC[C@H](NC(=O)[C@H](CC1CCCCC1)NC(=O)c1n[nH]c(NC(=O)/C=C/c2cccc([N+](=O)[O-])c2)n1)C(=O)N[C@@H](Cc1ccccc1)C(N)=O
4.4	–	–	N=C(N)NCCC[C@H](NC(=O)[C@H](CC1CCCCC1)NC(=O)c1n[nH]c(NC(=O)/C=C/c2cccs2)n1)C(=O)N[C@@H](Cc1ccccc1)C(N)=O
56	21	–	N=C(N)NCCC[C@H](NC(=O)[C@H](CC1CCCCC1)NC(=O)c1cc2ccccc2[nH]1)C(=O)N[C@@H](Cc1ccccc1)C(N)=O
1.6	–	–	N=C(N)NCCC[C@H](NC(=O)[C@H](CC1CCCCC1)NC(=O)c1cc(=O)c2ccccc2o1)C(=O)N[C@@H](Cc1ccccc1)C(N)=O
1.6	–	–	N=C(N)NCCC[C@H](NC(=O)[C@H](CC1CCCCC1)NC(=O)c1n[nH]c(NC(=O)/C=C/c2ccccc2[N+](=O)[O-])n1)C(=O)N[C@@H](Cc1ccccc1)C(N)=O
–	–	IC50 [1]: 6.4 µM; IC50 [3]: 9.8 µM	N=C(N)NCCC[C@H](NC(=O)[C@H](CC1CCCCC1)NC(=O)c1n[nH]c(NC(=O)/C=C/c2ccccc2)n1)C(=O)N[C@@H](Cc1ccccc1)C(N)=O
5	20	–	N=C(N)NCCC[C@H](NC(=O)[C@H](CC1CCCCC1)NC(=O)/C=C/c1ccccc1)C(=O)N[C@@H](Cc1ccccc1)C(N)=O
4	–	–	N=C(N)NCCC[C@H](NC(=O)[C@H](CC1CCCCC1)NC(=O)c1nnc(N)[nH]1)C(=O)N[C@@H](Cc1cccs1)C(N)=O
2	–	–	N=C(N)NCCC[C@H](NC(=O)[C@H](CC1CCCCC1)NC(=O)c1cccc(N)c1)C(=O)N[C@@H](Cc1ccccc1)C(N)=O (H-[3Abz][Cha]RF-NH2)
7	–	–	N=C(N)NCCC[C@H](NC(=O)[C@H](CC1CCCCC1)NC(=O)c1nnc(N)[nH]1)C(=O)N[C@H](C(N)=O)c1ccccc1
2.4	–	–	N=C(N)NCCC[C@H](NC(=O)[C@H](CC1CCCCC1)NC(=O)c1ccc(Cl)nc1)C(=O)N[C@@H](Cc1ccccc1)C(N)=O
1.3	–	–	N=C(N)NCCC[C@H](NC(=O)[C@H](CC1CCCCC1)NC(=O)c1cccnc1)C(=O)N[C@@H](Cc1ccccc1)C(N)=O (Nicotinoyl-[Cha]-Arg-Phe-NH2)
4	–	–	N=C(N)NCCC[C@H](NC(=O)[C@H](Cc1ccccc1)NC(=O)c1ccc2[nH]cnc2c1)C(=O)N[C@@H](Cc1ccccc1)C(N)=O
–	–	IC50 [1]: 1.2 µM	N=C(N)NCCC[C@H](NC(=O)[C@H](CC1CCCCC1)NC(=O)c1n[nH]c(NC(=O)/C=C/c2ccc(F)cc2)n1)C(=O)N[C@@H](Cc1ccccc1)C(N)=O
9	–	–	N=C(N)NCCC[C@H](NC(=O)[C@H](CC1CCCCC1)NC(=O)CCN)C(=O)N[C@@H](Cc1ccccc1)C(N)=O (H-[βAla][Cha]RF-NH2)
9.4	–	–	N=C(N)NCCC[C@H](NC(=O)[C@H](CC1CCCCC1)NC(=O)c1csnn1)C(=O)N[C@@H](Cc1ccccc1)C(N)=O
18	< 20	–	C[C@H](NC(=O)[C@H](CC1CCCCC1)NC(=O)c1n[nH]c(N)n1)C(=O)N[C@@H](Cc1ccccc1)C(N)=O
7.6	< 20	–	N=C(N)NCCC[C@H](NC(=O)[C@H](CC1CCCCC1)NC(=O)c1cccnc1Cl)C(=O)N[C@@H](Cc1ccccc1)C(N)=O
1.9	–	–	N=C(N)NCCC[C@H](NC(=O)[C@H](CC1CCCCC1)NC(=O)c1n[nH]c(N)n1)C(=O)N[C@@H](Cc1ccccc1)C(N)=O
16	26	–	N=C(N)NCCC[C@H](NC(=O)[C@H](CC1CCCCC1)NC(=O)C1C=CC=NC1=O)C(=O)N[C@@H](Cc1ccccc1)C(N)=O (some centres not stated)
8.5	–	–	N=C(N)NCCC[C@H](NC(=O)[C@H](CC1CCCCC1)NC(=O)c1nccnc1N)C(=O)N[C@@H](Cc1ccccc1)C(N)=O
